This is an account of results in PubChem BioAssay AID2823 (Broad Institute, 2010).

Active and inactive are the calls of the source. No rule for the calls is given here.

For this test, the target named is RanGTP-importin-beta complex (human Ran / KPNB1). The test is described as follows: disruptors of RanGTP/KPNB1 binding – biochemical, FRET, CFP/YFP, cell-free homogeneous, confirmation (AID 2823). The note with it: CFP-Ran/YFP-importin-beta FRET ratio.
For `O=c1[nH]c(-[n+]2ccc3ccccc3c2)c(/C=N/N=C(\[O-])c2ccccc2)s1`, the IC50 (usually the concentration needed to halve the response being measured) is > 50 µM (inactive).
In the case of `Cc1cccc(OCC(=O)NNc2c3ccccc3nc3ccccc23)c1` it was > 50 µM (inactive); in that of `CC(C)c1ccc(CN2CCC(Oc3ccc(C(=O)N4CCCC4)cc3)CC2)cc1`, > 50 µM (inactive); in that of `CNC(=O)c1c(C)[nH]c(=S)c(C#N)c1-c1ccco1`, > 50 µM (inactive).
On to `CCN(CC)c1ccc(/C=N/NC(=O)c2c(Cl)cnn2C)c(O)c1`, for which the IC50 is 6.2 µM.
Next, `O=C(Cn1c(=O)c2cccn2c2cccnc21)NCCCN1CCN(c2ccc(F)cc2)CC1`: > 50 µM (inactive); `COc1ccc(-n2c(N)c(C(=O)NCc3ccco3)c3nc4ccccc4nc32)c(OC)c1`: 21.9 µM.
Regarding `Cc1ccccc1/C=N/Nc1ccnc2cc(Cl)ccc12`, the IC50 is > 50 µM (inactive).
Next, `CCCc1cc(=O)oc2c(CN3CCCC3)c(O)c(Cl)cc12`: 27.1 µM.
In the case of `O=C(c1cc2c(=O)n3ccccc3nc2s1)N1CCN(c2cccc(Cl)c2)CC1` it was > 50 µM (inactive); in that of `OCCC1CN(Cc2cccn2-c2cccnc2)CCN1Cc1ccc(F)cc1` (stereo unspecified), > 50 µM (inactive); in that of `O=C(O)c1cn(Cc2cccnc2)c(=O)c2ccccc12`, > 50 µM (inactive).
In the case of `O=c1[nH]c(Nc2ccccn2)cc2ccccc12` it was > 50 µM (inactive).
Consider `N#Cc1cc2cc3c(cc2nc1N1CCOCC1)OCO3`, for which the IC50 is 12.2 µM.
In the case of `CCCOc1ccc(C2C(C(=O)OC)=CN(CCOC)C=C2C(=O)OC)cc1` it was 12.3 µM; in that of `C=CCNC(=O)c1cccc(OC2CCN(CC(C)(C)C)CC2)c1`, > 50 µM (inactive).
In the case of `CCN1CCc2c(sc(N)c2C#N)C1` it was 16.5 µM; in that of `NC(=O)c1sc2nccc(Nc3ccccc3)c2c1N`, > 50 µM (inactive).
In the case of `Cc1[nH]c2ccccc2c1/C=C/c1nc2ccccc2c(=O)n1CCO` it was > 50 µM (inactive).
Take `Cc1cccc(/C=N/c2sc3c(c2C#N)CCN(Cc2ccccc2)C3)c1O`: the IC50 is > 50 µM (inactive).
In the case of `Cc1sc(NC(=O)c2ccccc2)c(C#N)c1-c1ccccc1` it was > 50 µM (inactive); in that of `CCN1CCC2(CC1)C(C#N)=C(N)Oc1c2sc2nc(C)cc(C)c12`, > 50 µM (inactive); in that of `O=C(c1ccc(Br)cc1)c1cc2ccc(O)cc2oc1=O`, 19.2 µM.
In the case of `CC(C)C1C2=C(CC(C)(C)CC2=O)ON1c1ccccc1` (stereo unspecified) it was > 50 µM (inactive); in that of `C=CCN1C(=O)/C(=C\c2ccc(OC(=O)c3ccco3)c(OC)c2)SC1=S`, > 50 µM (inactive).
With `Cc1c(OC(=O)N(C)C)ccc2c1O/C(=C\c1ccco1)C2=O`, the IC50 was 12.5 µM.
Next, `CCCCCN(C(=O)CN(C)Cc1ccc(OC)cc1OC)c1c(N)n(CCCC)c(=O)[nH]c1=O`: > 50 µM (inactive); `CC1(C)CC(=O)C=C(NNC(=O)C2CCCCC2)C1`: > 50 µM (inactive); `COC(=O)c1sccc1NC(=O)c1csc(C)c1`: > 50 µM (inactive).
In the case of `O=C(O)Cn1cc(/C=C2\SC(=O)N(c3ccccc3)C2=O)c2ccccc21` it was 39.4 µM; in that of `O=C(N/N=C/c1ccc(-c2ccccc2Cl)o1)c1ccccc1`, > 50 µM (inactive).
Next, `COc1ccc(-c2c(N)nnc3c2[nH]c2ccccc23)cc1OC`: > 50 µM (inactive); `CSc1sc(C)cc1C1C(C#N)=C(N)N(c2cccnc2)C2=C1C(=O)CCC2` (stereo unspecified): 48 µM.
Consider `COc1ccc(-c2c(C)c3ccc(O)cc3oc2=O)cc1OC`, for which the IC50 was 37.2 µM.
For the compound `CCCSc1nnc(-c2c[nH]c3ccccc23)n1CC`, the IC50 is > 50 µM (inactive).
In the case of `Cc1oc2cc(O)ccc2c(=O)c1-c1nncn1-c1ccccc1` it was 32.3 µM.
Next, `CCOC(=O)C1=C(C)NC2=C(C(=O)C(C(=O)OCC)C(c3ccccc3OC)C2)C1c1ccccn1` (stereo unspecified): 26.2 µM.
`COC(=O)Cc1c(C)c2ccc(O)c(CNCc3ccc(OC)c(OC)c3)c2oc1=O`: the IC50 is 6.13 µM.
In the case of `CCN(CC)S(=O)(=O)c1ccc(/C=C/C(=O)Nc2ccc(F)cc2F)cc1`, the IC50 was > 50 µM (inactive).
Next, `COCCN1C=C(C(=O)OC)C(c2ccc(Cl)cc2)C(C(=O)OC)=C1`: 9.78 µM; `Cc1ccc(-n2c(O)c(/C=N/N3CCCCCC3)c(=O)[nH]c2=O)cc1C`: > 50 µM (inactive).
Consider `CCOCCCNC(=S)NCCNc1nc2c(C)cccc2cc1C#N`, for which the IC50 is 36.1 µM.
In the case of `COc1ccc2c(c1)C(c1ccc(C)o1)=NNC(c1cccnc1)=N2` it was > 50 µM (inactive); in that of `Cc1ccc(-c2c(C(=O)N/N=C/c3ccc4c(c3)OCO4)nnn2-c2nonc2N)cc1`, > 50 µM (inactive); in that of `CCC(=O)N(C)/C=C1\Sc2ccccc2C1=O`, > 50 µM (inactive).
In the case of `CC(=O)Cc1nsc(NC(=O)c2ccc(-c3cccc(C(F)(F)F)c3)o2)n1` it was > 50 µM (inactive); in that of `CC1CN(c2cc(=O)n(-c3cccc(Br)c3)c(=O)[nH]2)CC(C)O1` (stereo unspecified), > 50 µM (inactive).
In the case of `Cc1c(CC(=O)N2CCN(C(=O)C3COc4ccccc4O3)CC2)c(=O)oc2cc(O)c(Cl)cc12` (stereo unspecified) it was 4.84 µM; in that of `Cc1c(S(=O)(=O)N2CCCC(C(=O)O)C2)cnn1C` (stereo unspecified), > 50 µM (inactive); in that of `O=C(c1ccc(F)cc1)c1cc2ccc(O)cc2oc1=O`, 11.4 µM.
Take `CCn1c(SCC(=O)N(Cc2ccccc2)C2CCS(=O)(=O)C2)nc2ccccc2c1=O` (stereo unspecified): the IC50 was > 50 µM (inactive).
In the case of `C=C(C)Cn1c(SCC(=O)O)nnc1-c1ccc(OC)cc1` it was > 50 µM (inactive); in that of `COc1cc(C(=O)NCCCNc2nc3cc(C)cc(C)c3cc2C#N)cc(OC)c1OC`, 29.8 µM.
In the case of `CCS(=O)(=O)c1ccc(S(=O)(=O)CC)s1`, the IC50 was > 50 µM (inactive).
As to `O=C(Oc1ccc2c3c(c(=O)oc2c1)CCCC3)c1ccco1`, the IC50 was 16 µM.
In the case of `Oc1ccc(-c2[nH]ncc2-c2cccc3cccnc23)c(O)c1` it was > 50 µM (inactive); in that of `COc1ccc2c(CC#N)c[nH]c2c1`, > 50 µM (inactive); in that of `CCOC(=O)C1(CC2CCCCO2)CCN(C(=O)Nc2ccc3c(c2)OCO3)CC1` (stereo unspecified), > 50 µM (inactive).
For the compound `COCCCn1c(N)c(C(=O)Nc2ccccc2)c2nc3ccccc3nc21`, the IC50 was 40.8 µM.
In the case of `CCOC(=O)c1c(NC(=O)C2CCCCC2)sc2c1CCN(CC)C2` it was > 50 µM (inactive); in that of `N#Cc1ccccc1NC(=O)C1CC(=O)N(c2ccc3c4c(cccc24)CC3)C1` (stereo unspecified), > 50 µM (inactive); in that of `Cc1ccc2cc(C#N)c(N3CCCN(S(=O)(=O)c4ccc(F)cc4)CC3)nc2c1`, 31.6 µM.
In the case of `O=C(NNc1c2ccccc2nc2ccccc12)c1ccc(O)cc1O` it was > 50 µM (inactive); in that of `CCOC(=O)CNc1ncc([N+](=O)[O-])cc1C#N`, > 50 µM (inactive).
In the case of `C/C(=N\NC(=S)NCc1ccccc1)c1cccc(Br)c1` it was > 50 µM (inactive); in that of `C=CCn1c(N)c(C(=O)OCCC)c2nc3ccccc3nc21`, 26 µM; in that of `CCc1ccc(N2C(=O)NC(=O)/C(=C\c3cc(C)n(-c4cc(C(=O)O)cc(C(=O)O)c4)c3C)C2=O)cc1`, > 50 µM (inactive).
Take `CC1Cc2cc(/C(O)=C3/C(=O)C(=O)N(Cc4ccncc4)C3c3ccc(N(C)C)cc3)ccc2O1` (stereo unspecified): the IC50 was > 50 µM (inactive).
In the case of `COC(=O)C1=CN(Cc2ccccc2)C=C(C(=O)OC)C1c1ccc(O)c(OC)c1` it was > 50 µM (inactive); in that of `O=c1cc(CN2CCN(S(=O)(=O)c3ccc4c(c3)OCCO4)CC2)c2ccc(O)cc2o1`, 10.9 µM; in that of `COCCn1c(N)c(C(=O)OCc2ccccc2)c2nc3ccccc3nc21`, 46.2 µM.
In the case of `CCN1CCc2c(sc(NC(=O)C3CCCCC3)c2C(=O)OC)C1` it was > 50 µM (inactive); in that of `Cc1cc(S(=O)(=O)N2CCN(c3c(C)cccc3C)CC2)ccc1F`, > 50 µM (inactive); in that of `Cc1c(C)c2cc(Cl)c(O)c(CN(C)C)c2oc1=O`, 25.2 µM.
Next, `CC(C)NC(=O)/C(C#N)=C/c1ccc(N(C)C)o1`: 6.07 µM; `C=CCn1c(SCC(=O)N2CCCCC2)nnc1-c1ccncc1`: > 50 µM (inactive); `Cc1cc(O)ccc1NC1=CC(=O)CC(C)(C)C1`: > 50 µM (inactive).
Consider `CCCOC(=S)NC(=O)c1sc2ccccc2c1Cl`, for which the IC50 is > 50 µM (inactive).
Next, `CC1C2(C)OC(=N)C(C#N)(C(C)O2)C1(C#N)C#N` (stereo unspecified): 44.2 µM; `N=C(N)SCc1nc2ccccc2c(=O)n1-c1ccccc1Cl`: > 50 µM (inactive); `CCOC(=O)c1c(NC(=O)c2cccc(N3C(=O)CCC3=O)c2)sc2c1CCN(CC)C2`: > 50 µM (inactive).
Next, `Cc1ccc(Cl)cc1-n1c(=O)cc(N2CC(C)OC(C)C2)[nH]c1=O` (stereo unspecified): > 50 µM (inactive); `CCC(=O)N(CC(=O)Nc1sc(C)c(C)c1C(N)=O)C1CCCC1`: > 50 µM (inactive).
Next, `CCN1CCN(c2cc(=O)n(Cc3ccc(F)cc3)c(=O)[nH]2)CC1`: > 50 µM (inactive); `Cc1cccc(-n2c(C)cc(/C=C3\C(=N)N4N=C(CC(C)C)SC4=NC3=O)c2C)c1`: 10.6 µM; `CCOc1ccc(NC(=O)CN2C(=O)COc3ccc(Cl)cc32)cc1`: > 50 µM (inactive).
For `Cc1ccc(C2NC(=O)c3c(sc(C)c3C)N2)c(O)c1` (stereo unspecified), the IC50 is > 50 µM (inactive).
In the case of `O=C(c1cc(COc2ccc(F)cc2Cl)on1)N1CCCC(c2ccccc2)C1` (stereo unspecified) it was > 50 µM (inactive); in that of `Cc1ccc(OCC(=O)NCCNC(=O)c2ccc(C)nc2)cc1`, > 50 µM (inactive); in that of `CSc1ncccc1C(=O)OCC(=O)c1cc2ccccc2o1`, > 50 µM (inactive).
Next, `COC(=O)C1=CN(Cc2ccccc2)C=C(C(=O)OC)C1c1cc(F)ccc1F`: 15.9 µM.
